pIC50: −log10 of the molar value.
Molecular target: T1, human DGAT2 (hDGAT2) (Homo sapiens, UniProt Q96PD7)
T1 construct: made in house; host or cells: Sf-9 insect cells (baculovirus), membrane fraction
T1 sequence (Q96PD7 1-388): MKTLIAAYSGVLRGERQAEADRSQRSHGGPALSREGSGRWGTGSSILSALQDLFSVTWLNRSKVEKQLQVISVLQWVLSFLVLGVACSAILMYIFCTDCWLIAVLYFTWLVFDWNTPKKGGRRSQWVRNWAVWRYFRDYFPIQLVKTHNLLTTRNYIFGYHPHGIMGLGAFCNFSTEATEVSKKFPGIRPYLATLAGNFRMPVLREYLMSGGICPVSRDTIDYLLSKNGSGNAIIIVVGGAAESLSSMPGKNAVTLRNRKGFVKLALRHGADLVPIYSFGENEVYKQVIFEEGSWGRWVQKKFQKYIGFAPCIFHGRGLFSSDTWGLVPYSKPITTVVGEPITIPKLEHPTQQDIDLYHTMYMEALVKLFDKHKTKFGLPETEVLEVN
Assay: DGAT2 Enzymatic Activity Assay
Type: biochemical
Details: membrane prep of Sf-9 cells expressing hDGAT2; 13C18-triolein product by LC/MS/MS; 25 μM diolein, 5 μM 13C oleoyl-CoA, rt
In short: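 Membranes from Sf-9 cells expressing untagged human DGAT2 (baculovirus, 48 h) used as enzyme at rt. The product ^13C18-triolein is quantified by LC/MS/MS against a ^13C21-triolein internal standard. Percent inhibition is taken from high and low controls, and IC50 is derived.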

SMILES | pIC50
Cc1c(Oc2ncc(F)cc2OCC(F)F)ccc2nc(C(=O)NC3(C)CC(F)(F)C3)cn12 [Example 28, 6-[[3-(2,2-difluoroethoxy)-5-fluoro-2-pyridyl]oxy]-N-(3,3-difluoro-1-methyl-cyclobutyl)-5-methyl-imidazo[1,2-a]pyridine-2-carboxamide] | 7.23
Cc1c(C(=O)NC2CC(C(F)(F)F)C2)nc2ccc(Oc3ncc(F)cc3OCC(F)F)cn12 (centres unmarked) [Example 97, 6-[[3-(2,2-difluoroethoxy)-5-fluoro-2-pyridyl]oxy]-3-methyl-N-[3-(trifluoromethyl)cyclobutyl] imidazo[1,2-a]pyridine-2-carboxamide] | 8.40
CC1(NC(=O)c2nc3ccc(Oc4ncccc4OCC(F)(F)F)cn3c2Cl)CCS(=O)(=O)CC1 [Example 130, 3-chloro-N-(4-methyl-1,1-dioxo-thian-4-yl)-6-[[3-(2,2,2-trifluoroethoxy)-2-pyridyl]oxy]imidazo[1,2-a]pyridine-2-carboxamide] | 8.48
CC1(NC(=O)c2nc3cc(Cl)c(Oc4ncc(Cl)cc4OCC(F)(F)F)nn3c2Cl)CS(=O)(=O)C1 [Example 179, 3,7-dichloro-6-[[5-chloro-3-(2,2,2-trifluoroethoxy)-2-pyridyl]oxy]-N-(3-methyl-1,1-dioxo-thietan-3-yl)imidazo[1,2-b]pyridazine-2-carboxamide] | 7.00
CCOc1ccccc1COc1ccc2nc(C(=O)NC3(C)CCS(=O)(=O)CC3)c(C)n2c1 [Example 124, 6-[(2-ethoxyphenyl)methoxy]-3-methyl-N-(4-methyl-1,1-dioxo-thian-4-yl)imidazo[1,2-a]pyridine-2-carboxamide] | 8.24
Cc1cc2nc(C(=O)NC3(C)CCS(=O)(=O)CC3)c(C)n2nc1Oc1ncc(F)cc1OCC(F)F [Example 171, 6-[[3-(2,2-difluoroethoxy)-5-fluoro-2-pyridyl]oxy]-3,7-dimethyl-N-(4-methyl-1,1-dioxo-thian-4-yl)imidazo[1,2-b]pyridazine-2-carboxamide] | 8.89
Cc1c(C(=O)NC2(C)CCS(=O)(=O)CC2)nc2cc(F)c(Oc3ncc(Cl)cc3OCC(F)(F)F)cn12 [Example 119, 6-[[5-chloro-3-(2,2,2-trifluoroethoxy)-2-pyridyl]oxy]-7-fluoro-3-methyl-N-(4-methyl-1,1-dioxo-thian-4-yl)imidazo[1,2-a]pyridine-2-carboxamide] | 9.00
Cc1c(Oc2ncc(Cl)cc2OCC(C)(F)F)ccc2nc(C(=O)NC3(C)CCS(=O)(=O)CC3)c(F)n12 [Example 143, 6-[[5-chloro-3-(2,2-difluoropropoxy)-2-pyridyl]oxy]-3-fluoro-5-methyl-N-(4-methyl-1,1-dioxo-thian-4-yl)imidazo[1,2-a]pyridine-2-carboxamide] | 7.43
